Results taken from patent US7291627B2, “Dihydroimidazo[5.1-a]-beta-carboline derivatives, method for their preparation, and their application as a drug” (MACEF, priority 2001, dated 2007).

System: JA 657 chicks
Assay: Chick sleep/sedation test (IM injection, 90 minute observation)
Assay type: in vivo
Details: for Sed (sedation time as % of the period) / TA (time to torpor between injection and first stage of sleep) / TS (duration of the first sleep) / Tsed (total sedation time over the period): 90 min observation; for TS (mins) Placebo diff'ce: extension of first sleep compared with test controls
Protocol: The dihydroimidazo[5,1-a]-β-carboline derivatives of the invention, in particular those in the form of the methyl sulfonate, (soluble), were tested in chicks, and certain compounds that were active in the chick were administered in single doses to six Beagle dogs of both sexes for a polysomnographic study of at least 4 hours duration.
JA 657 chicks from Couvoir Gauguet, 44 Le Pin, were accustomed for at least 6 days to an alternating program of light and darkness with 12 hours of daylight and 12 hours of darkness at a regulated temperature of 25±2° C. They were fed ad libitum and were placed under test compounds in a vivarium in groups of 3 individuals with a mean weight of 100±10 g on the day of the test. At that age in this species, there is no effective meningeal (hemato-encephalic) barrier. The test products were injected in 3 doses (1, 3 and 10 mg/kg) intramuscularly (IM) in solution or in an aqueous suspension (1 drop of Tween 80 per ml), each to two batches of 3 chicks which were observed over 90 minutes. For each test series (18 vivaria), there was at least one batch of negative control chicks receiving the same volume (0.2 ml IM) of water for injectable preparations.
During the 90 minute observation period, the chicks were strongly stimulated every 15 minutes by presenting a full feeding trough, and each 5 minute period was given a grade from among the following 5 states, corresponding to the state of alertness over that period:
Mobile, sitting alert, drowsy, asleep, sleep-like state. The parameters studied were the time to torpor (TA) passed between injection and the first stage of sleep, the duration of the first sleep (TS) and the total sedation time over the period (Tsed), expressed in minutes and as a % of the period (Sed).
To compare the results of tests carried out at different dates, the extension of the duration of the first sleep TS compared with the test controls was recorded.

SMILES	Sed (sedation time as % of the period) (Dose: 1 mg/kg) [%]	TA (time to torpor between injection and first stage of sleep) (Dose: 1 mg/kg) [min]	TS (duration of the first sleep) (Dose: 1 mg/kg) [min]	Tsed (total sedation time over the period) (Dose: 1 mg/kg) [min]	TS (mins) Placebo diff'ce (Dose: 1 mg/kg) [min]	Sed (sedation time as % of the period) (Dose: 3 mg/kg) [%]	TA (time to torpor between injection and first stage of sleep) (Dose: 3 mg/kg) [min]	TS (duration of the first sleep) (Dose: 3 mg/kg) [min]	Tsed (total sedation time over the period) (Dose: 3 mg/kg) [min]	TS (mins) Placebo diff'ce (Dose: 3 mg/kg) [min]	Sed (sedation time as % of the period) (Dose: 10 mg/kg) [%]	TA (time to torpor between injection and first stage of sleep) (Dose: 10 mg/kg) [min]	TS (duration of the first sleep) (Dose: 10 mg/kg) [min]	Tsed (total sedation time over the period) (Dose: 10 mg/kg) [min]	TS (mins) Placebo diff'ce (Dose: 10 mg/kg) [min]
COc1ccc2[nH]c3c(c2c1)CCn1cncc1-3 [Example 3, 8-methoxy-5,6-dihydroimidazo[5,1-a]-β-carboline]	73.9	10	40	66.51	36	78.9	7	66.5	71.0	62.5	86.7	6.5	77.5	78.0	73.5
COc1ccc2[nH]c3c(c2c1)CCn1c(C)nc(-c2ccccc2)c1-3 [Example 4, 8-methoxy-3-methyl-1-phenyl-5,6-dihydro-imidazo[5,1-a]-β-carboline]	58.9	16.5	38	53.01	34	72.8	14	22.5	65.5	18.5	90.6	8.5	81.5	81.5	76.5
CCc1nc(C)n2c1-c1[nH]c3ccc(OC)cc3c1CC2 [Example 5, 1-ethyl-8-methoxy-3-methyl-5,6-dihydro-imidazo[5,1-a]-β-carboline]	58.3	20.5	33	52.47	29	76.7	14.5	53	69.0	49	62.8	13.5	40.5	56.5	36.5
COc1ccc2[nH]c3c(c2c1)CCn1c-3cnc1C(C)C [Example 6, 8-methoxy-3-isopropyl-5,6-dihydroimidazo-[5,1-a]-β-carboline]	73.3	11	56.5	65.97	52.5	80.6	12.5	72.5	72.5	68.5	82.2	12.5	72.5	74.0	68.5
